What was measured:
[1] = system: European red mite Panonychus ulmi; assay: Ovicide activity on European red mite eggs on beet leaf discs (Example 6); format: in vivo; conditions: after 8 days; leaf discs immersed five seconds; oil 1.5%, meal 2 g l^−1, hexythiazox 50 mg p.a. l^−1
Experimental: Beet leaf discs measuring 60 mm were placed in a 90 mm diameter Petri dish and kept in a climatic cell at 24° C., 75% R.H. with 17 hours of light. Fifteen female mites were placed on each leaf disc to lay their eggs. The females were removed after 24 hours and the eggs were counted. Each group consisted of three leaf discs. The treatments were carried out with the “deep test” method: the leaf discs were immersed for five seconds in a suspension consisting of 1.5% vegetable oil, 1.5% vegetable oil+2 g l^−1 carinata meal, 1.5% UF mineral oil+2 g l^−1 carinata meal or the acaricide hexythiazox Matacar (Sipcam) at a dose of 50 mg p.a. I^−1. The control was immersed in water. The ovicide activity was assessed starting on the fourth day and every 2 days up to the eighth day, calculating the percentage of hatched eggs estimated indirectly by counting the live offspring.

Cacopsylla pyri = assay: Field test on pear lice (Example 11); format: in vivo
Experimental: Pear plants with a high level of lice infestation were treated on May 6 and 20 2006. […]

Compound | hatched eggs [1] | surviving offspring (Cacopsylla pyri; ten days after the first treatment) | offspring or nymphs found (Cacopsylla pyri; third observation (30 days after the second treatment))
C[C@@H]1[C@@H](c2ccc(Cl)cc2)SC(=O)N1C(=O)NC1CCCCC1 [commercial acaricide, hexythiazox] | 23.4% | – | –
Abamectin | – | 22 | no offspring or nymphs were found

— patent US20080199451A1, “Composition for the Treatment and/or Prevention of Attacks by Biological Agents” (priority 2005, published 2008)
